System: human PBMC cytotoxicity, percent of cell control
Experiment: cytotoxicity in human PBMC, dose response, cytotoxicity control for HIV-1 antiviral lead project, cell-based, PBMC assay companion, set 2 (AID 504571)

| SMILES | CC50 [µM] |
| --- | --- |
| COc1ccccc1Cn1c(O)cc2nn(-c3nc4ccccc4s3)c(=O)c-2c1C | 29.6 |
| Cc1c2c(=O)n(-c3nc4ccccc4s3)nc-2cc(O)n1Cc1ccc(F)cc1 | 19.1 |
| Cc1c2c(=O)n(-c3nc4ccccc4s3)nc-2cc(O)n1Cc1ccncc1 | 2.64 |
| Cc1c2c(=O)n(-c3nc4ccccc4s3)nc-2cc(O)n1CCC(C)C | 45 |
| COc1ccc(Cn2c(O)cc3nn(-c4nc5ccccc5s4)c(=O)c-3c2C)cc1 | 19.1 |
| Cc1c2c(=O)n(-c3nc4ccccc4s3)nc-2cc(O)n1Cc1ccccc1 | 21 |
| Cc1c2c(=O)n(-c3nc4ccccc4s3)nc-2cc(O)n1Cc1cccs1 | 14.2 |
| Cc1c2c(=O)n(-c3nc4ccccc4s3)nc-2cc(O)n1C1CC1 | 5.72 |
| COc1ccc(CCn2c(O)cc3nn(-c4nc5ccccc5s4)c(=O)c-3c2C)cc1 | 49.8 |
| Cc1c2c(=O)n(-c3nc4ccccc4s3)nc-2cc(O)n1Cc1ccccc1Cl | 35.6 |
| Cc1c2c(=O)n(-c3nc4ccccc4s3)nc-2cc(O)n1CCc1cccs1 | 40.8 |
| Cc1c2c(=O)n(-c3nc4ccccc4s3)nc-2cc(O)n1CCc1ccc(O)cc1 | 2.55 |
| Cc1c2c(=O)n(-c3nc4ccccc4s3)nc-2cc(O)n1Cc1cccnc1 | 2.24 |

Source: PubChem BioAssay AID504571 (Southern Research Specialized Biocontainment Screening …, 2011)
